By EC50 is commonly meant the concentration at which the effect is half-maximal.

The values below come from article PMC11581908 (Nature chemical biology, 2024).

Structures are written as SMILES.

The target of one assay is T1, FBXO22 (Homo sapiens, UniProt Q8NEZ5).
T1 sequence (Q8NEZ5 1-403): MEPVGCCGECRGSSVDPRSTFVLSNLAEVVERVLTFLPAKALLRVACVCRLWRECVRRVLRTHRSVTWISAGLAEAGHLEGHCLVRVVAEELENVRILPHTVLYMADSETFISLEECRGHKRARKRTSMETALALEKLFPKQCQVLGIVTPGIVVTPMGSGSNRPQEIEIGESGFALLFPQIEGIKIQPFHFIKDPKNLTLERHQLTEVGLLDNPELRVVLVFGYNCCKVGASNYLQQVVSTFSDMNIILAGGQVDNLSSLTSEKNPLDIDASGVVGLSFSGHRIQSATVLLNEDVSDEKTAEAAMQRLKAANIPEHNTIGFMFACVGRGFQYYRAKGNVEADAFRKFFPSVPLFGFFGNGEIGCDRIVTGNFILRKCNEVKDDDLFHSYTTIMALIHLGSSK
In words: cysteine-directed ABPP in cells. The class given is cell-based.

The next assay addresses FKBP12 (Homo sapiens, UniProt P62942). The format is cell-based.

Sequence of FKBP12 (P62942 2-108): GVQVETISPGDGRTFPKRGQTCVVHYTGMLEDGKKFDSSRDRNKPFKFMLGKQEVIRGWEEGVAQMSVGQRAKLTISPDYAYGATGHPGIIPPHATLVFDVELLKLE

With `CCC(C)(C)C(=O)C(=O)N1CCCC[C@H]1C(=O)O[C@H](CCc1ccc(OC)c(OC)c1)c1cccc(OCC(=O)NCCCOCCOCCOCCCN(C(=O)CCl)C(C(=O)NCc2ccccc2)c2nc3ccccc3s2)c1` (some centres unmarked) [compound 1, 22-SLF], the “% of C228 blocked at 2 μM” value at FBXO22 is ~ 20 % of C228 blocked at 2 μM. Also, the EC50 at FKBP12 was 1960 nM.
